One assay deals with SARS-CoV2 S2 ECD (Severe acute respiratory syndrome coronavirus 2, UniProt P0DTC2). In words: biochemical. The assay is classed as binding, SARS-CoV-2.
Assay [1] addresses S-RBD-ACE2 protein complex (Homo sapiens, UniProt Q9BYF1). It counts as binding, SARS-CoV-2.
Another assay deals with human ACE2 (Homo sapiens, UniProt Q9BYF1). In words: Surface plasmon resonance assay, human ACE2 chip. It counts as binding. The note with it: SPR, human ACE2 extracellular domain, pH 4.5, 25 °C. Background: In SPR one partner is held on a chip, and binding of the other changes the refractive index at the surface.
Sequence of human ACE2 (Q9BYF1 18-740): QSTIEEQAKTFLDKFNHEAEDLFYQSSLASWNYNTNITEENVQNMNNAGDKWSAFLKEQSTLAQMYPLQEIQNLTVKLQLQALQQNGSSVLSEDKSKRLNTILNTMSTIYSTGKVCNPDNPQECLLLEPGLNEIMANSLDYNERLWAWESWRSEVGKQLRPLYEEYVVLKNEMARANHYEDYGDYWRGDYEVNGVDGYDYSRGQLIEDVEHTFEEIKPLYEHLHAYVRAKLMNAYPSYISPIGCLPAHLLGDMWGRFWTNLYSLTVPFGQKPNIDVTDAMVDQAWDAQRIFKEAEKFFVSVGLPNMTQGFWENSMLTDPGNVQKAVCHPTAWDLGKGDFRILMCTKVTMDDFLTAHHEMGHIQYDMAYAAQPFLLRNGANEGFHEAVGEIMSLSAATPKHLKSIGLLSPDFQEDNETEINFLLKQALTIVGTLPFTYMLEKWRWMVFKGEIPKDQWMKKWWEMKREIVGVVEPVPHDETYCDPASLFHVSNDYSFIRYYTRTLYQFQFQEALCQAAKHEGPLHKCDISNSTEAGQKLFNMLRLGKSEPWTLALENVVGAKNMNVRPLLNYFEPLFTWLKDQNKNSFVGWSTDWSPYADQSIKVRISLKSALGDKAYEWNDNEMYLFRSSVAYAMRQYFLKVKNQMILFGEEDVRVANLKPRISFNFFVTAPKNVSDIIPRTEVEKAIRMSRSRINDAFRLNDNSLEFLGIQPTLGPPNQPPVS
For another assay, the target named is SARS-CoV-2 S1 + S2 ECD (Severe acute respiratory syndrome coronavirus 2, UniProt P0DTC2). In words: biochemical. It counts as binding.

Sequence of S-RBD-ACE2 protein complex (Q9BYF1 18-740, one chain of several): as the sequence (Q9BYF1 18-740) above

Glycyrrhizic acid: the Rmax on SARS-CoV2 S2 ECD (pH 5.5) is on record as 623.7 RU.

As to `[Cl-].[Cl-].[Mg+2]` [MgCl2], the “Tm Mean of RBD-ACE2 complex” value in assay [1] was 51.6 °C.

In general, Kd refers to the constant that tells how readily two partners part at equilibrium. As to `CC1(C)[C@@H](O[C@H]2O[C@H](C(=O)O)[C@@H](O)[C@H](O)[C@H]2O[C@@H]2O[C@H](C(=O)O)[C@@H](O)[C@H](O)[C@H]2O)CC[C@]2(C)[C@H]3C(=O)C=C4[C@@H]5C[C@@](C)(C(=O)O)CC[C@]5(C)CC[C@@]4(C)[C@]3(C)CC[C@@H]12` [Glycyrrhizate, glycyrrhizate], the Kd on human ACE2 is 4900 µM. This compound also gave an Rmax on human ACE2 (listed as glycyrrhizate) of 557.8 RU.

`CC1=NN(c2ccc(C)c(C)c2)C(=O)/C1=N\Nc1cccc(-c2cccc(C(=O)O)c2)c1O` [Eltrombopag]: the figures for the Kd on SARS-CoV2 S2 ECD (KD), at human ACE2 and on SARS-CoV-2 S1 + S2 ECD were 2.17 µM, 0.828 µM and 2.01 µM, respectively. For the same compound, at human ACE2, the Rmax came out at 21.95 RU. The “Tm Mean of RBD-ACE2 complex” value in assay [1] is 49.9 °C.

`[Ca+2].[Cl-].[Cl-]` [CaCl2]: in assay [1], the “Tm Mean of RBD-ACE2 complex” value was determined as 51.6 °C.

As to `CC1(C)[C@@H](O[C@H]2O[C@H](C(=O)O)[C@@H](O)[C@H](O)[C@H]2O[C@@H]2O[C@H](C(=O)O)[C@@H](O)[C@H](O)[C@H]2O)CC[C@]2(C)[C@H]3C(=O)C=C4[C@@H]5C[C@@](C)(C(=O)O)CC[C@]5(C)CC[C@@]4(C)[C@]3(C)CC[C@@H]12` [Glycyrrhizin, glycyrrhizin], the Kd at human ACE2 was 1800 µM. Moreover, at human ACE2 (listed as glycyrrhizin), the Rmax is 499.4 RU.

For the origin of these results see PMC7290210 (Infection, Genetics and Evolution, 2020).
